Results: ChEMBL document CHEMBL1201862, “PubChem BioAssay data set” (2004)
The source made the active and inactive calls. Rule as the data show it, for most assays here: actives have a measured EC50 and inactives only a lower limit.

Assays:
[1] = biological target: Luciferin 4-monooxygenase (Photinus pyralis, UniProt P08659); assay: firefly luciferase enzyme inhibitors, dose response, biochemical, luminescence (AID 1891)
[2] = Luminescence Cell-Based Dose Confirmation HTS to Identify Inhibitors of Platelet Dense Granule Release. [Related pubchem assays: 1663 (Primary HTS), 1678 (Summary of Project)]; type: functional
[3] = biological target: T1, Zinc finger protein mex-5 (Caenorhabditis elegans, UniProt Q9XUB2); assay: MEX-5/TCR-2 RNA interaction inhibitors, dose response, biochemical, C. elegans, fluorescence polarization (AID 1960)
T1 sequence (Q9XUB2 whole entry): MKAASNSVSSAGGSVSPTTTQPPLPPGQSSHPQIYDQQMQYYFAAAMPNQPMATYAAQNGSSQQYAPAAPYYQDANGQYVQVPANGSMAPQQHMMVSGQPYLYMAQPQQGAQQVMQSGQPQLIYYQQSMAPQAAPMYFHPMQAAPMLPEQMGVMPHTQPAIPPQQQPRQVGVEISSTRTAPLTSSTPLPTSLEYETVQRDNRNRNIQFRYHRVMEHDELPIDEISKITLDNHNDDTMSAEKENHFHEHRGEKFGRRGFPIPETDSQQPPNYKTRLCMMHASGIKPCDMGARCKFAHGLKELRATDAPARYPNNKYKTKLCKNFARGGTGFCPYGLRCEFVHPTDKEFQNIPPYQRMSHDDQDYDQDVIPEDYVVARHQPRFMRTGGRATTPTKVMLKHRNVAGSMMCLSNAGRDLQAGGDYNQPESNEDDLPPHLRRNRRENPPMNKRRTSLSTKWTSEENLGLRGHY

[4] = biological target: T2, RNA-binding protein pos-1 (Caenorhabditis elegans, UniProt G5EF15); assay: inhibitors of POS-1/mex-3 RNA binding, dose response, biochemical, fluorescence polarization (AID 1964);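 also: purified POS-1 fused to maltose binding protein made in E. coli; potency of compounds blocking POS-1 binding to fluorescent RNA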
T2 sequence (G5EF15 whole entry): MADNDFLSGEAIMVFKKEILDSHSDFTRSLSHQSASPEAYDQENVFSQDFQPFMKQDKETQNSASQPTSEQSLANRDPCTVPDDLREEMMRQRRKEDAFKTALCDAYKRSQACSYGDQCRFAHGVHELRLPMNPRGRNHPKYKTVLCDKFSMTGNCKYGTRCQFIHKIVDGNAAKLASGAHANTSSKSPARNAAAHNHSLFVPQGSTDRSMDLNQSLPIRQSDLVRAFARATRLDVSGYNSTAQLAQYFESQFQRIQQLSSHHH

[5] = Luminescence Cell-Based Dose Response HTS to Identify Inhibitors of 5'UTR Stem-Loop Driven Prion Protein mRNA Translation in H4 Neuroglioblastoma Cells. [Related pubchem assays: 1827 (Project Summary), 1813 (Primary HTS)]; type: functional
[6] = inhibitors of SNCA 5'UTR-driven reporter translation, confirmation, H4 neuroglioma cells, luminescence (AID 1988); type: functional, cell-based
[7] = inhibitors of firefly luciferase expression or activity, dose response, H4 neuroglioma cells, luminescence (AID 1990); type: functional, cell-based
[8] = inhibitors of intracellular T. cruzi replication, confirmation, NIH3T3 host cells, beta-gal luminescence (AID 2044); type: functional, cell-based;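 also: intracellular parasites grown in NIH/3T3 mouse fibroblasts as host cells; luminescent beta-galactosidase reporter signal from transgenic T. cruzi replicating inside host cells; inhibitors lower the luminescence signal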
[9] = cytotoxicity toward NIH3T3 fibroblasts, dose response, counter-screen, cell-based, ATP luminescence, mouse fibroblasts (AID 2010); type: functional;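 also: cells exposed to compound for about 90 hours before reading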
[10] = C. albicans growth with fluconazole, confirmation, fluorescence, retest (AID 2467); type: functional, cell-based
[11] = NIH-3T3 fibroblast cytotoxicity, dose response, cytotoxicity control, cell-based, fluorescence, Alamar Blue, secondary assay (AID 2327); type: functional;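 also: NIH-3T3 mouse fibroblasts cultured with fluconazole at 8 µg/mL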
INS1 = assay: beta cell apoptosis inhibitors, cytokine rescue, dose response, luminescence, retest (AID 449756); type: functional, cell-based; details: Rattus norvegicus;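 also: cell death triggered by IL-1 beta plus TNF-alpha plus IFN-gamma mixture; protective hits raise ATP signal compared with cytokine alone wells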
[12] = tested on: Streptococcus sp. 'group A'; assay: growth inhibition of control SK(-) GAS strain, dose response, counter-screen for streptokinase expression inhibitor project, luminescence, kanamycin, BacTiterGlo, confirmation (AID 1900); type: functional, organism-based
Streptococcus = assay: Group A Streptococcus viability loss, dose response, counter-screen for streptokinase expression inhibitor project, luminescence, BacTiterGlo (AID 1915); type: functional, organism-based;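 also: potency for reduction of bacterial viability or growth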

Sequence of Luciferin 4-monooxygenase (P08659 whole entry): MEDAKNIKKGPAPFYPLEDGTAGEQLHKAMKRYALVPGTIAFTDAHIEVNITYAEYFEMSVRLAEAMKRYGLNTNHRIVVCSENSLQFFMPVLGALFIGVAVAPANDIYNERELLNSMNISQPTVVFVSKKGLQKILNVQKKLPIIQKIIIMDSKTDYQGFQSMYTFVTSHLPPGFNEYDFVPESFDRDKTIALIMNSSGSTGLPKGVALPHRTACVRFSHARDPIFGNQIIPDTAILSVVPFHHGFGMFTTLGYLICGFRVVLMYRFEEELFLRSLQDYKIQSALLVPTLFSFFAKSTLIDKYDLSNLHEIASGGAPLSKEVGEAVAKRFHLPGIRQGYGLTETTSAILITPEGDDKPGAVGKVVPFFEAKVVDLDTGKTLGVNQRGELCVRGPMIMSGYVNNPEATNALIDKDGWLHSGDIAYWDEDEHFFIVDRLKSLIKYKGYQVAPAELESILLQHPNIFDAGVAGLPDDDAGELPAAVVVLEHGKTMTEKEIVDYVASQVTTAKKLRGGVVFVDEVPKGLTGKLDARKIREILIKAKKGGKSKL

Row | SMILES | EC50 [1] | EC50 [2] | EC50 [3] | EC50 [4] | further results
1 | CCOC(=O)C1=C(C)OC(N)=C(C#N)C1C1CCCCC1 (configuration not stated) | > 112 µM (not active) | > 112 µM (not active) |  |  | 
2 | Cc1nc(O)nc(O)c1/C=N/NC(=O)CCNC(=O)OC(C)(C)C | > 112 µM (not active) | > 112 µM (not active) |  |  | 
3 | CCOc1cccc(-c2c(C(=O)N/N=C/c3ccc(C)s3)nnn2-c2nonc2N)c1 | > 112 µM (not active) | > 112 µM (not active) |  |  | 
4 | Cc1ccc(N(C)S(=O)(=O)c2c(C)noc2/C=C/N(C)C)cc1 |  |  | > 300 µM (not active) | > 300 µM (not active) | 
5 | C/C(=N/N=C(\C)c1ccccc1O)c1ccccc1O |  |  | > 300 µM (inconclusive) | > 300 µM (not active) | 
6 | Nc1nc(NCCc2ccccc2)nc(NCCO)c1[N+](=O)[O-] |  |  |  |  | EC50 [5]: > 120 µM (not active); EC50 [6]: 39.1 µM (active); EC50 [7]: 19.1 µM (active)
7 | COc1ccc(CCNCc2ccc(OCC(=O)N3CCCCC3)c(OC)c2)cc1OC | > 112 µM (not active) | 16.3 µM (active) |  |  | EC50 [8]: 133 nM (active); EC50 [9]: > 60 µM (inconclusive)
8 | O=C(Cn1cncn1)N/N=C/c1c2ccccc2cc2ccccc12 |  |  | > 300 µM (not active) | > 300 µM (not active) | 
9 | FC(F)(F)c1cc(C(F)(F)F)n2nc(-c3sccc3-n3cccc3)cc2n1 |  |  | > 300 µM (not active) | > 300 µM (not active) | 
10 | Cn1cc(S(=O)(=O)N2CCOCC2)cc1C(=O)Nc1ccc(Cl)cc1 | > 112 µM (not active) | > 112 µM (not active) |  |  | 
11 | Cc1cc(N)n2nc(-c3ccc(C(C)(C)C)cc3)cc2n1 | 0.401 µM (active) | 2.35 µM (active) |  |  | 
12 | COc1ccc(/C=C/CN2CCCC(CO)(Cc3cccc(Cl)c3)C2)cc1 (configuration not stated) | > 112 µM (not active) | > 112 µM (not active) |  |  | 
13 | O=C(O)CCc1ccc(-c2ccccc2)n1-c1cccc(C(=O)O)c1 |  |  | > 300 µM (not active) | > 300 µM (not active) | 
14 | COc1ccc(-c2cn3c([n+]2-c2ccccc2)CCCCC3)cc1 |  |  |  |  | EC50 [10]: 2.53 µM (active); EC50 [11]: > 150 µM (inactive); AC50 (INS1): 2.58 µM (active)
15 | CCCCCCN1C(=O)/C(=C/Nc2ccccc2N2CCOCC2)C(=O)NC1=S |  |  | > 300 µM (inconclusive) | > 300 µM (not active) | 
16 | CCCCN(C)S(=O)(=O)c1ccc(C(=O)Nc2nnc(-c3cccs3)o2)cc1 |  |  |  |  | EC50 [8]: 1090 nM (active); EC50 [10]: 0.861 µM (active); EC50 [11]: > 150 µM (inactive); EC50 [12]: 680 nM (active); EC50 (Streptococcus): 3.65 µM (active); EC50 [9]: 8 µM (active)
17 | Cc1cc(NC(=O)/C=C/c2cccc(Cl)c2)n(-c2nc3ccccc3[nH]2)n1 | > 112 µM (not active) | 49.7 µM (active) |  |  | 
18 | O=C(Cn1cc2c(n1)CCCC2)NCc1cccc(Cl)c1 |  |  |  |  | EC50 [5]: > 120 µM (not active); EC50 [6]: > 120 µM (not active); EC50 [7]: > 120 µM (not active)
19 | COc1ccccc1C(=O)NCCC(=O)Nc1ncccc1O | > 112 µM (not active) | > 112 µM (not active) |  |  | 
20 | CCOC(=O)c1ccc2nc(NC(=O)c3cccs3)sc2c1 | 0.729 µM (active) | 10.7 µM (active) |  |  | 
21 | Cc1ccc(C)c(N(CC(=O)Nc2ccccc2C(=O)NCc2ccco2)S(=O)(=O)c2ccccc2)c1 |  |  |  |  | EC50 [5]: > 120 µM (not active); EC50 [6]: > 120 µM (not active); EC50 [7]: 15.6 µM (active)
22 | CCN1C(=C(C#N)C#N)C=Cc2ccccc21 |  |  | > 300 µM (not active) | > 300 µM (inconclusive) | 
23 | O=C(NCc1ccco1)c1ccc(-c2ccccc2Cl)o1 | > 112 µM (not active) | > 112 µM (not active) |  |  | 
24 | CC1CCCCN1Cc1nc2c(c(=O)n(C)c(=O)n2C)n1CCc1ccccc1 (configuration not stated) | > 112 µM (not active) | > 112 µM (not active) |  |  | 
25 | CCc1nc(SCC(=O)Nc2cccc(C(F)(F)F)c2)c2c(=O)n(C)c(=O)n(C)c2n1 |  |  |  |  | EC50 [5]: 16.4 µM (active); EC50 [6]: 15.9 µM (active); EC50 [7]: 19.1 µM (active)
26 | CCc1ccc(/C=C2\Oc3c(ccc(O)c3CN3CCN(CCO)CC3)C2=O)cc1 |  |  | 73.3 µM (active) | 37.1 µM (active) | 
27 | CC/C(NCCCN(C)C)=C1/C(=O)NC(=O)N(c2ccc(OC)cc2)C1=O |  |  | > 300 µM (not active) | > 300 µM (not active) | 
28 | O=C(O)c1ccc(COc2cccc(CO)c2)cc1 | 44.4 µM (active) | 4.38 µM (active) |  |  | 
29 | COCCCNc1nc(N)c([N+](=O)[O-])c(NCc2ccccc2)n1 |  |  |  |  | EC50 [5]: > 120 µM (not active); EC50 [6]: 14.2 µM (active); EC50 [7]: 19.4 µM (active)
30 | COc1ccccc1N1CCN(C(=O)c2cc(-c3ccccc3O)on2)CC1 | > 112 µM (not active) | > 112 µM (not active) |  |  | 
